Source: ChEMBL document CHEMBL1201862, “PubChem BioAssay data set” (2004)
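Values below derive from 48-hour exposures of cells grown in 96-well plates, with endpoints linearly interpolated between the two concentrations bracketing the appropriate inhibition level. GI50 is the concentration that inhibits growth by half.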 Active and inactive are the calls of the source. Rule as the data show it: active = GI50 up to about 1.1 µM and inactive = higher. Non-standard residues stand in square brackets, D forms with d. Residues, ends and D or L forms follow the SMILES beside them. ξ: configuration not given here. *: point of attachment. X18 = COC1=CC(=O)N(C(=O)C(O*)C(C)C)C1Cc1ccccc1; ξNMe2Val = CC(C)C(C(=O)*)N(C)C; NMeV = CN[CH](C(=O)O)C(C)C

Assays:
Assay in all cases: growth of human tumour cells (NCI), 48 h
M19-MEL = tested on: M19-MEL
RXF 631 = tested on: RXF 631
LXFL 529 = tested on: LXFL 529
786-0 = tested on: 786-0
DU-145 = tested on: DU-145
Hs-578T = tested on: Hs-578T
T47D = tested on: T47D
BT-549 = tested on: BT-549
MDA-MB-231 = tested on: MDA-MB-231

SMILES | GI50 (M19-MEL) | GI50 (RXF 631) | GI50 (LXFL 529) | GI50 (786-0) | GI50 (DU-145) | GI50 (Hs-578T) | GI50 (T47D) | GI50 (BT-549) | GI50 (MDA-MB-231)
COc1ccc(C2C(C(=O)O)=C(CO)Oc3cc4c(cc32)OCO4)cc1 (stereo not given) | > 100 µM (inactive) | > 100 µM (inactive) |  |  |  |  |  |  | 
CC1C(=O)OC2CC[N+]3(CC(=O)c4ccc(Br)cc4)CC=C(COC(=O)C(C)(O)C1(C)O)C23 (stereo not given) | > 375 µM (inactive) |  |  |  |  |  |  |  | 
C#CCOc1c(C(=O)OCC)c(=O)n(C)c2ccccc12 | > 100 µM (inactive) | > 100 µM (inactive) | > 100 µM (inactive) |  |  |  |  |  | 
O=C(N/C(=C\c1cccc([N+](=O)[O-])c1)c1nc2c(O)nc(S)nc2[nH]1)c1ccccc1 | > 100 µM (inactive) | > 100 µM (inactive) | 58.5 µM (inactive) | > 100 µM (inactive) |  |  |  |  | 
COC(=O)C(Cc1nc2ccc(Cl)cc2nc1O)C(=O)C(=O)Nc1ccccc1[N+](=O)[O-] (stereo not given) | > 100 µM (inactive) | > 100 µM (inactive) | > 100 µM (inactive) | > 100 µM (inactive) |  |  |  |  | 
CN(C)CCNC(=O)Cn1ccc(=O)c2ccc([N+](=O)[O-])cc21 |  |  |  | > 100 µM (inactive) | > 100 µM (inactive) | > 100 µM (inactive) | > 100 µM (inactive) |  | 
COC(=O)c1nn(C(=N)c2ccc(Cl)cc2)c2c1CCC2 | > 100 µM (inactive) |  | > 100 µM (inactive) | > 100 µM (inactive) |  |  |  |  | 
Cn1nc(N)nc1N=S(C)(C)=N |  |  | > 100 µM (inactive) | > 100 µM (inactive) |  |  |  |  | 
NC(CCOCCP(=O)(O)O)C(=O)O (stereo not given) |  |  |  |  | > 100 µM (inactive) | > 100 µM (inactive) | 57.7 µM (inactive) | > 100 µM (inactive) | > 100 µM (inactive)
CC(SC1=CC(=O)c2c(Cl)ccc(O)c2C1=O)C(=O)O (stereo not given) |  |  | 16 µM (inactive) |  |  |  |  |  | 
CCCOc1nc(N)c2cnn(C3CCCCO3)c2n1 (stereo not given) | > 100 µM (inactive) |  | > 100 µM (inactive) | > 100 µM (inactive) |  |  |  |  | 
Nc1nc(=O)[nH][nH]1 | > 100 µM (inactive) |  |  |  |  |  |  |  | 
Cc1n[nH]c(N)c1C(N)=O |  |  | > 100 µM (inactive) |  |  |  |  |  | 
S=C(S)NCC1CCC(CNC(=S)S)CC1 (stereo not given) |  |  |  | 4.63 µM (inactive) | 26 µM (inactive) | > 100 µM (inactive) | 16.3 µM (inactive) | 44.1 µM (inactive) | 29.2 µM (inactive)
CCOC(=O)/C(=C\NC#N)c1nc2ccccc2[nH]1 |  |  |  | > 100 µM (inactive) | > 100 µM (inactive) |  |  | > 100 µM (inactive) | 
O=C1NC(=O)C2(CCc3ccc(N(CCCl)CCCl)cc32)N1 (stereo not given) | 14.1 µM (inactive) |  |  |  |  |  |  |  | 
O=S(=O)(O)c1ccc(-c2c3nc(c(-c4ccc(S(=O)(=O)O)cc4)c4ccc([nH]4)c(-c4ccc(S(=O)(=O)O)cc4)c4nc(c(-c5ccc(S(=O)(=O)O)cc5)c5ccc2[nH]5)C=C4)C=C3)cc1 |  |  |  | > 100 µM (inactive) | 39.1 µM (inactive) | 13.9 µM (inactive) | 33 µM (inactive) | 28 µM (inactive) | 20.9 µM (inactive)
CC1C(O)[C@@]2(OC[C@@]34C(=O)CC5(O)[C@H](CCC6Cc7nc8c(nc7C[C@]65C)CC5CC[C@@H]6C7=C[C@H]9O[C@@]%10(O[C@@](C)(CO)C[C@@H]%10O)C(C)[C@@]9(O)[C@]7(C)[C@@H](O)CC6[C@]5(C)C8)C3=CC[C@H]4C2C)OC1(C)C (stereo not given in full) | 0.442 µM (active) |  |  |  |  |  |  |  | 
OC[C@H]1NC[C@@H](O)[C@@H](O)[C@H]1O |  |  |  |  | > 10 µM (inactive) | > 100 µM (inactive) | > 100 µM (inactive) | > 100 µM (inactive) | > 100 µM (inactive)
OC(c1ccc(Cl)cc1)(c1ccc(Cl)cc1)c1cncnc1 |  |  |  |  | 24.6 µM (inactive) | 25.3 µM (inactive) | 28.2 µM (inactive) | 19.2 µM (inactive) | 18.6 µM (inactive)
COC1=CC(=O)N(C(=O)C(OC(=O)C2CCCN2C(=O)C2CCCN2C(=O)C(C(C)C)N(C)C(=O)C(NC(=O)C(C(C)C)N(C)C)C(C)C)C(C)C)C1Cc1ccccc1 (stereo not given) (ξNMe2Val-V[NMeV]PP-X18; configuration not given here) | 0.00319 µM (active) | 0.00459 µM (active) | 0.00119 µM (active) | 0.00223 µM (active) | 0.000618 µM (active) | 0.000188 µM (active) | < 0.01 µM (active) | 0.00046 µM (active) | 0.00146 µM (active)
